Reference: patent publication US6635629B2, “3-nitrogen-6,7-dioxygen steroids and uses related thereto” (Inflazyme Pharmaceuticals Ltd., priority 2000, dated 2003)
pIC50: −log10 of the molar value. In brackets after ≈: the same amount, converted by molar mass.

Experiments:
[1] = test system: sensitized Brown Norway rats; assay: Ovalbumin-induced accumulation of inflammatory cells in lung lavage fluid of sensitized Brown Norway rats; type: in vivo, rat; conditions: p.o.
Procedure: The ability of a compound to inhibit the allergen-induced accumulation of inflammatory cells such as eosinophils and neutrophils in the lavage fluid obtained from sensitized animals is indicative of that compound's anti-asthma activity. […] The test is conducted as follows.
Male Brown Norway rats are sensitized to ovalbumin by single intraperitoneal injection of 1 mg ovalbumin adsorbed to 100 mg A(OH)3 (alum) in 1 ml sterile saline (saline control rats receive only sterile saline) on day 1, and allowed to sensitize until day 21. […] Rats are challenged with 0.5% ovalbumin in saline generated using a Devillbis nebulizer for 60 min on day 21.
Forty-eight hrs after challenge, animals are sacrificed with an overdose of intraperitoneally-delivered sodium pentobarbitol and the lungs are lavaged with cold 2×7 ml phosphate buffered saline. The recovered lavage fluid is placed on ice. The bronchoalveolar lavage fluid is centrifuged and the supernatant removed. The pellet is resuspended in phosphate buffered saline at 4° C. Cytospins are prepared and stained for differentiation and enumeration of cell types.
Test compound was administered in 300 μl corn oil (Tables 7 and 8) or water (Table 9), which were used as vehicles. Control animals received 300 μl corn oil or water alone, i.e., no drug. […] A negative value in Table 7, 8, or 9 indicates an exacerbation of the effect over the control animal.

[2] = Pharmacokinetics in the rat; type: in vivo; conditions: plasma; for bioavailability: po
[3] = Pharmacokinetics in the monkey; type: in vivo; conditions: plasma; for bioavailability: po
[4] = physchem; conditions: water
[5] = test system: mouse ear edema; assay: Irritant-induced (phorbol 12-myristate 13-acetate) mouse ear edema; type: in vivo; conditions: 15 mg/kg orally in 45% β-cyclodextrin in saline; 3 hours after PMA; compared to control animals
Procedure: A number of mice are uniquely identified by placing a mark with an indelible marker on their tail. Mice are dosed orally with 15 mg/kg test compound in 100 μl of 45% β-cyclodextrin in saline. Mice are briefly anaesthesized with 2% halothane, and 2 μg of phorbol 12-myristate 13-acetate in 25 μl of acetone is applied to the inner and outer sides of the left ear of the mouse. Acetone is applied to the right ear of the mouse in the same manner to serve as a vehicle control. Control animals receive the same treatment but without any test compound. After 3 hours, mice are sacrificed by cervical dislocation, and a standard sized biopsy is excised from the ears and weighed to the nearest 1/10th of a mg. Data are analyzed by taking the difference of each left ear from the right ear, and then calculating the % inhibition of edema by (((mean Rx/mean irritant))×100)-100.
For example, compound 83 inhibits irritant-induced mouse ear edema by 38% compared to control animals.

[6] = Metabolic stability in human liver S9 fractions; type: in vitro ADME; conditions: human, 10 μM, pH 7
Text: The therapeutic effectiveness of a test compound can be often directly related to its metabolic stability in vivo. The majority of known, marketed drugs are metabolized by a group of enzymes known as P450 enzymes. The S9 fraction of human liver contains all the P450 enzymes and also cytoplasmic enzymes that may be involved in the metabolism of new chemical entities. Metabolism in vitro using human S9 fractions is a standard assay to evaluate relative metabolic stability of new compounds. The test is performed as follows.
Reagents are thawed on ice and combined to make up a Master Mix as follows: Potassium phosphate (100 mM, pH 7), G6P (0.25 mM), G6PDH (2 U/ml), NADPH (1 mM), UDP (0.25 mM), APPS (0.25 mM), and S9 fraction (2 mg/ml). A volume of 498 μl of the Master mix is dispensed into each microcentrifuge tube. A volume of 2 μl of 2.5 mM test compound (final concentration of 10 μM) is dispensed into the center of the lid of the appropriate tube, and the lids gently closed to prevent mixing. Synchronous combination of test compound and master mix is achieved by simultaneous ten times inversion of the tubes, which are then incubated at 37° C. and shaken at 150 rpm for the appropriate incubation times. While incubation is in progress, all 0 time samples are mixed individually by three times inversion followed by the immediate addition of 500 μl ice cold acetonitrile with three times inversion to stop the reaction. Immediately after each 15 minutes and 30 minutes incubation is complete, ice cold acetonitrile is added to each tube and the tubes mixed by three times inversion. All sample tubes are incubated at −80° C. for a minimum of 15 minutes, thawed and remixed by inversion. Aliquots of 650 μl are transferred to Chromatographic Specialties micro-spin filter system tubes (0.2 μm nylon membrane, C618505) and centrifuged at 13,000 rpm for 48 seconds. The sample filtrates are stored at −80° C.
Sample filtrates are analyzed on LCMS, and percent remaining after 15 and 30 minute incubation is calculated relative to the 0 minute incubation.
The metabolic stability of various compounds are summarized in Table 10 as the percent remaining after 15 or 30 minutes incubation with human liver S9 fractions.

[7] = test system: rat mast cell line (RBL-2H3); assay: Antigen-induced release of hexosaminidase from a rat mast cell line (RBL-2H3); type: cell-based; conditions: inhibition of DNP-HSA antigen-induced hexosaminidase release; tested at 0.3, 3, 10 and 30 μM; read-out: Hex IC50
Procedure: The anti-allergic effects of a compound of the present invention was evaluated by measuring its effect on antigen-induced secretion of hexosaminidase from a passively sensitized rat mast cell line. The ability of a test compound to inhibit the release of mast cell granule contents, e.g., histamine and hexosaminidase, is indicative of the anti-allergy and/or anti-asthma activity of the compound. Hexosaminidase is released from the mast cell granule along with histamine and other mediators during antigen challenge. The test is performed as follows.
RBL-2H3 cells are grown in culture and passively sensitized for 1 hour at 37° C. to dinitrophenol (DNP) using anti-human-DNP (IgE). Cells are incubated with test compound for 30 minutes at 37° C. and stimulated with 0.5 μg/ml DNP-HSA (antigen) for 30 minutes. Aliquots of the supernatant are removed and used to measure the amount of hexosaminidase released during challenge with the antigen. […] The effect of each test compound is determined as a percentage of the antigen-induced response (minus background release) obtained in the presence of DMSO alone. These values are used to determine the degrees of inhibition of antigen-induced hexosaminidase release from the cells.

[8] = test system: Jurkat clone E6.1 cells; assay: Antigen-induced (anti-CD3 mAb) calcium flux in Jurkat clone E6.1 cells; type: cell-based; conditions: 20 μM; anti-CD3 mAb 4 μg/mL; Fura 2AM
Text: Elevation of cytoplasmic calcium concentration is a common and crucial event which follows the activation of many types of cell surface receptors. Increases in intracellular calcium that occur following agonist activation of inositol lipid hydrolysis are the results of calcium release from the endoplasmic reticulum and the influx of calcium through the plasma membrane. Increases in cytosolic calcium concentration are involved in many important cellular responses in the inflammatory process including adhesion, motility, gene expression, proliferation, and degranulation. Changes in intracellular calcium centrations can affect both short and long term cellular responses. An assay method to evaluate a test compound's impact on calcium flux is provided as follows.
The resulting supernatants are discarded and each pellet is washed in 10 mL HBSS. Cell suspensions are accumulated and centrifuged for 5 minutes at 900 RPM to form a cell pellet. The resulting supernatant is discarded and the pellet is resuspended in HBSS at 1×10^7 cells/mL. The cell suspension is transferred to a 20 mm petri dish and incubated at 37° C., 5% CO2 for 20 minutes.
One volume of Fura 2AM is mixed to one volume of detergent Pluronic F127. Cells are labeled with 4 μL of probe solution to each mL of cell suspension. The petri dish is wrapped in aluminum foil to protect from light and placed on a plate shaker for 30 minutes at room temperature.
The following steps are done in the laminar flow hood with the fluorescent lights turned off. The petri dish is removed from the shaker and the labeled cell suspension is transferred to a 15 mL conical tube and washed twice with HBSS as above. The cell pellet is resuspended in 12 mL HBSS and left wrapped in foil for 30 minutes at room temperature. The labeled cell suspension is aliquoted (100 μL/well) into a Dynex 96 well white opaque tissue culture plate. […] Selected compounds were tested for dose related activity. Test samples and activator (anti—CD3 mAb at final concentration of 4 μg/mL, PharMingen) are added manually (50 μL), such that the minimum time to acquire the first data point after stimulation is approximately 30 seconds. The calcium influx response to anti-CD3 mAb is measured as an “end point” assay. The entire plate is read in 100 seconds using a kinetic of 1 second per well.
The plate is read before the addition of anti-CD3 to monitor non-specific effect of samples/drugs. Fluorescence emission is measured at 510 nm with excitation alternating between 340 and 380 every second using an excitation/emission filter pair. Data from these dual wavelengths are represented as a ratio of 2 excitations wavelengths. This ratio is independent of intracellular dye and cell concentrations, enabling real comparison between experiments.

[9] = 0.03 mg/kg, 4 days qd, water vehicle
[10] = 0.1 mg/kg, 4 days qd, water vehicle
[11] = 0.3 mg/kg, 4 days qd, water vehicle
[12] = 1 mg/kg, 4 days qd, water vehicle
[13] = 5 mg/kg/day for 4 days, corn oil vehicle, relative to control animals

Row | SMILES | % inhibition of eosinophils [1, 10] | % inhibition of lymphocytes [1, 10] | % inhibition of neutrophils [1, 10] | % inhibition of eosinophils [1, 11] | % inhibition of lymphocytes [1, 11] | % inhibition of neutrophils [1, 11] | % inhibition of eosinophils [1, 12] | % inhibition of lymphocytes [1, 12] | % inhibition of neutrophils [1, 12] | % inhibition of eosinophils [1, 13] | % inhibition of lymphocytes [1, 13] | % inhibition of neutrophils [1, 13] | half-life [2] | bioavailability [2] | half-life [3] | bioavailability [3] | solubility ([4]; solubility at room temperature) | further results
1 | C/C=C1/CCC2C3C(CC[C@]12C)[C@@]1(C)CC[C@H](N)CC1[C@@H](O)[C@@H]3O (stereo partly shown) [Compound 28] | 29% | 50% | −10% | 71% | 85% | 66% | 60% | 70% | 41% | 85% | 124% | 87% | 7.5 h | ~100% | 15 h | 25 to 30% | ~30 mg/mL (≈ 90 mM) | % inhibition of eosinophils [1, 9]: 5%; % inhibition of lymphocytes [1, 9]: −5%; % inhibition of neutrophils [1, 9]: −26%
2 | C/C=C1/CCC2C3C(CC[C@]12C)[C@@]1(C)CC[C@H](N)CC1[C@@H](O)[C@@H]3O (stereo partly shown) [Compound 83] | – | – | – | – | – | – | – | – | – | 67% | 38% | 34% | – | – | – | – | – | inhibition of irritant-induced mouse ear edema [5]: 38%; % remaining after 15 min ([6]; s9, 15 min): 92 ± 19%; % remaining after 30 min ([6]; s9, 30 min): 91 ± 21%
3 | C=C1CCC2C3C(CC[C@]12C)[C@@]1(C)CC[C@H](N)CC1[C@@H](O)[C@@H]3O (stereo partly shown) [Compound 89] | 35% | 2% | 25% | 80% | 70% | 72% | 71% | 6% | 66% | 57% | 64% | 60% | 7.5 h | ~100% | 15 h | 25 to 30% | ~30 mg/mL (≈ 93.9 mM) | pIC50 [7]: 4.94; Calcium (% inhibition at 20 μM) [8]: 15.0%; solubility ([4]; solubility in water): > 100 mg/mL
